# Test results as given in patent US20210254000A1, “PROCESS FOR PRODUCING A T CELL COMPOSITION” (Juno Therapeutics, Inc., priority 2017, published 2021).
# What was measured:
# phospho-S6 = assay: Antigen-dependent CAR signaling (phospho-S6) in expanded CAR-T cells; assay type: cell-based, human; details: cells expanded with 200 nM PI-103 or 1 μM Compound 63, washed; 20 hours co-culture 1:1
# Protocol: Separate compositions of CD4+ and CD8+ cells were isolated from three human donors, activated and transduced with a viral vector encoding an anti-CD19 CAR substantially as described in Example 2. After transduction, the CD4+ and CD8+ T cells derived from each donor were separately incubated for 8 days in the presence of a mTOR kinase inhibitor to expand T cells substantially as described in Example 2, except in the presence of 200 nM PI-103, 1 μM Compound 63, or with DMSO vehicle or media only controls. CD4+ and CD8+ T cells from each donor were then separately harvested, formulated, and cryofrozen. The cryofrozen engineered CD4+ and CD8+ T cells were thawed, washed to remove compound, and cells from the same donor were then combined at a ratio of 1:1 viable CD4+/CAR+ to viable CD8+/CAR+ T cells to produce an expanded anti-CD19 CAR-T cell composition containing CD4+ and CD8+ T cells. Functional activities of the generated anti-CD19 CAR-T cell compositions were assessed.
# Antigen-dependent signaling of CAR-T cells among generated anti-CD19 CAR-T cell compositions was assessed by monitoring activation of phospho-S6. […] After 20 hours, cells were assessed, for intracellular S6 phosphorylation and co-stained for surface expression of CD4 or CD8, by flow cytometry.
# CD4+ and/or CD8+ T cells = assay: RNA-Seq gene expression of CAR-T cells expanded with inhibitor; assay type: cell-based, human; details: FDR≤10%
# Protocol: Gene expression among cells of the generated anti-CD19 CAR-T cell compositions described in Example 2, generated by expanding the cells in the presence of PI-103, Compound 63, DMSO vehicle, or media only, was assessed by RNA sequencing (RNA-Seq). RNA was extracted from compositions generated from three donors under each expansion condition and an assessment of the whole-transcriptome was performed by RNA-Seq. FPKM and FPKQ values were determined; FPKQ values were log-transformed (log 2). Gene expression was determined by comparing expression profiles of CD4+, CD8+ or combined CD4+/CD8+ cells among cells of the generated anti-CD19 CAR-T cell compositions that were expanded in the presence of media only, PI-103, or Compound 63, as compared to cells expanded with DMSO vehicle. Gene products were identified that were different among each groups based on analysis of a volcano plot by imposing cutoff of FDR≤10% between the two conditions.
# Raji cells [1] = assay: Raji tumor xenograft model, CAR-T cells expanded with inhibitor; assay type: in vivo, nod scid gamma (NSG) immunodeficient mice; details: for tumor burden (bioluminescence) compared with DMSO vehicle: low (0.25×10^6) or high (1.0×10^6) dose of CAR+ T cells expanded with the inhibitor; for survival compared to mice administered CAR-T cells expanded with DMSO vehicle: low or high dose of CAR-T cells expanded with the inhibitor
# Protocol: Anti-tumor effects of the generated anti-CD19 CAR-T cell compositions, generated by expansion in the presence of PI-103, Compound 63 or media only as described in Example 2, was assessed. The tumor xenograft mouse model was generated by implanting nod scid gamma (NSG) immunodeficient mice with 0.5×10^6 Raji cells (an immortalized human B lymphocyte tumor cell line that expresses CD19), which were allowed to engraft. The Raji cells were transfected with firefly luciferase to facilitate detection by bioluminescence imaging. After seven days, mice either received no treatment, DMSO vehicle, or a low dose (0.25×10^6) or a high dose (1.0×10^6) dose of CAR+ T cells of the generated anti-CD19 CAR-T cell compositions. Tumor burden was assessed by bioluminescence weekly or every 10 days.
# caspase 3 = assay: Intracellular caspase 3 in thawed CAR-T cells prepared with inhibitor; assay type: cell-based, human; details: thawed CAR-T cells prepared with 1 μM Compound 63 vs DMSO; three donors
# Protocol: (§1) Separate compositions of CD4+ and CD8+ cells were selected from isolated PBMCs from a leukapheresis sample from the same human donor by immunoaffinity based selection, and the selected cell compositions were cryofrozen. The separate compositions of CD4+ and CD8+ T cells were subsequently thawed and mixed at a ratio of 1:1 of viable CD4+ T cells to viable CD8+ T cells. In this study, the mixed CD4+ and CD8+ cell populations were incubated in the presence of Compound 63, PI103 or no inhibitor (DMSO vehicle control) beginning at the initiation of stimulation. In more detail, the mixed CD4+ and CD8+ T cell composition was stimulated (in the presence or absence of an inhibitor, as indicated) in the presence of paramagnetic polystyrene-coated beads with attached anti-CD3 and anti-CD28 antibodies for between 18 to 30 hours, and were then transduced with a lentiviral vector encoding an anti-CD19 CAR. The CAR contained an scFv antigen-binding domain specific for CD19 (derived from FMC63), a CD28 transmembrane region, a 4-1BB costimulatory signaling region, and a CD3-zeta derived intracellular signaling domain. The cells were then expanded in the presence of cytokines typically for approximately 6-7 days. […]
# The cells were assessed by flow cytometry for levels of the cell surface markers and levels of pro-apoptotic marker, intracellular caspase 3.
# [2] = tested on: CD19-expressing target cells; assay: Cytolytic activity of CAR-T cells (mixed CD4+/CD8+ process); assay type: cell-based, human; details: CAR-T cells prepared with 2 μM PI103 or 1 μM Compound 63; freshly thawed or day 14; 3:1 effector to target
# Protocol: as §1, with “CAR.” for “CAR. The CAR contained an scFv antigen-binding domain specific for CD19 (derived from FMC63), a CD28 transmembrane region, a 4-1BB costimulatory signaling region, and a CD3-zeta derived intracellular signaling domain. The cells were then expanded in the presence of cytokines typically for approximately 6-7 days.”
# Cytolytic activity of the generated CAR-T cells was assessed by culturing the generated CAR-T cells, either freshly thawed or at day 14 of restimulation from above, with CD19-expressing target cells at a 3:1 effector to target ratio. Target cell death was quantitated over time. The tumor cell growth area under the curve (AUC) of signal over time for each concentration was determined. A killing index was calculated as the inverse of the area under the tumor cell growth curve (1/AUC).
# Raji cells [3] = assay: Raji tumor xenograft model, CAR-T cells prepared as in Example 7; assay type: in vivo, nod scid gamma (NSG) immunodeficient mice
# Protocol: Anti-tumor effects of anti-CD19 CAR-T cell compositions prepared in the presence DMSO, PI-103 or Compound 63 as described in Example 7 were assessed in vivo. The tumor xenograft mouse model was generated by implanting nod scid gamma (NSG) immunodeficient mice with 0.5×10^6 Raji cells (an immortalized human B lymphocyte tumor cell line that expresses CD19), which were allowed to engraft. The Raji cells were transfected with firefly luciferase to facilitate measurement of tumor burden by bioluminescence imaging. After seven days, mice either received no treatment, or treatment with a low dose (0.25×10^6) or a high dose (1.0×10^6) of anti-CD19 CAR+ T cells prepared in the presence of DMSO (vehicle) or DMSO and a mTOR kinase inhibitor. Tumor burden and mortality were assessed weekly.
SMILES,phospho-S6 staining after antigen stimulation vs DMSO vehicle or media only (phospho-S6),gene expression (RNA-Seq) compared to cells expanded with DMSO vehicle (CD4+ and/or CD8+ T cells),"survival (Raji cells [1]; high dose of CAR-T cells expanded with the inhibitor, for at least 80 days following tumor cell implant)",tumor burden (bioluminescence) compared with DMSO vehicle (Raji cells [1]),survival compared to mice administered CAR-T cells expanded with DMSO vehicle (Raji cells [1]),levels of pro-apoptotic marker intracellular caspase 3 (caspase 3),target cell killing (killing index 1/AUC) compared to CAR-T cells prepared with DMSO [2],in vivo anti-tumor responses compared to absence of inhibitor (DMSO vehicle) (Raji cells [3]; low (0.25×10^6) or high (1.0×10^6) dose of CAR+ T cells prepared with the inhibitor),anti-tumor effects compared to cells produced in the absence of inhibitor (DMSO vehicle) (Raji cells [3]; CAR-T cells generated from another donor)
"CC(C)c1ccccc1-n1c(=O)[nH]c2c(C(N)=O)nc(-c3cccc(O)c3)nc21 [Compound 63, 2-(3-Hydroxyphenyl)-9-(2-isopropylphenyl)-8-oxo-8,9-dihydro-7H-purine-6-carboxamide]",similar,significantly changed gene expression,100%,Reduced tumor burden,substantially improved survival,decreased levels,improved target cell killing,improvement in vivo anti-tumor responses,
"Oc1cccc(-c2nc(N3CCOCC3)c3oc4ncccc4c3n2)c1 [PI-103, reference compound]",similar,significantly changed gene expression,,Reduced tumor burden,substantially improved survival,,improved target cell killing,,comparable anti-tumor effects
